Patent US6342201B1, “Complex compounds for diagnosis of vascular diseases” (Institut for Diagnostikforschung GmbH an der Freien …, priority 1994, dated 2002)
“Also recorded” adds a separate entry of the source.

Experiments:
[1] = test system: arteriosclerotic plaques (aortic arch, a. carotis, abdominal aorta); test: In vivo gamma camera scintigraphy of WHHL-rabbits; parameters: species or system WHHL-rabbit
Method: (§1) The order of the dissected tissues for each B1 and B2 from left to right: thoracic aorta, right denuded a. carotis and left untreated a. carotis.
(§2) 2 mCi (1 ml) of the analog to b) labelled […]was applied to a narcotized WHHL-rabbit (Rompun/Ketavet 1:2) via an ear vein. WHHL-rabbits reveal due a missing or defect LDL receptor high LDL levels in blood and therefore show spontaneous arteriosclerotic vascular changes. During the experimental time span of 5 h after application, static photographs with various exposure times and positions were taken with a gamma camera (Elcint SP4 HR). 5 h after application the rabbit was killed and both an autoradiography and a Sudan III dyeing of the aorta were performed.

[2] = test system: plaque as well as non-plaque regions of the aorta; test: Quantitative autoradiography and Sudan-III-dyeing of the removed aorta of WHHL-rabbits after i.v. application; parameters: species or system WHHL-rabbit; details: in vivo
Method: 74 MBq (2 mCi) of the respective compound according to the invention was applied via an ear vein in a WHHL-rabbit. 5 h p.i. the rabbit was killed and both a quantitative autoradiography and a Sudan-III-dyeing of the removed aorta were performed. The so-determined accumulation of the respective compounds according to the invention in the different tissues is listed in Table 1.
as §2, with “performed. The arteriosclerotic plagues in the region of the aortic arch of the WHHL-rabbits could be depicted with 10 min p.i. in vivo. […] The enrichment factor between the normal and arteriosclerotic wall regions was between 6 and 9, depending on the plaque formation (Sudan III dyeing).” for “performed.”

[3] = test system: denuded (arteriosclerotic) right a. carotis; test: Scintigram and autoradiogram of a New Zealand rabbit with right a. carotis denuded by Fogarty-catheter; type: in vivo; details: right a. carotis denuded four weeks earlier, 0.5 h after i.v. application of 74 MBq
Excerpt: as §1

For “Tc-99m-Complex of Asp-Gly-Gly-Cys-Gly-Cys-Phe-(D-Trp)-Leu-Asp-Ile-Ile-Trp [Example 3 c]”, the “enrichment activity in vivo in left lateral scintigram” value ([1]; WHHL-rabbit versus New Zealand control rabbit, 0.5 h after i.v. application of 74 MBq, aortic arch, left a. carotis, abdominal aorta) was “observable enrichment activity in vivo; also recorded: enrichment activity is visible in vivo”.
With “Tc-99m-Complex of N-(4-hydroxycarboxy-1-oxo-3-thia-but-1-yl)-Cys-(D-Trp)-Leu-Asp-Ile-Ile-Trp [Example 5 c]” the “Enrichment factor Plaque / Non-plaque” value [2] was 9.
“Tc-99m-Complex of N-(4-hydroxycarboxy-1-oxo-3-thia-but-1-yl)-Cys-His-Leu-Asp-Ile-Ile-Trp [Example 6 c]” was tested, and the “Enrichment factor Plaque / Non-plaque” value [2] was 5.
In the case of “Tc-99m-Complex of N-(4-hydroxycarboxy-1-oxo-3-thia-but-1-yl)-Cys-Phe-(D-Trp)-Leu-Asp-Ile-Ile-Trp [Example 4 c]”, the “Enrichment factor Plaque / Non-plaque” value [2] is reported as 14.
“^99mTc-Complex of Asp-Gly-Gly-Cys-Gly-Cys-D-Trp-Leu-Asp-Ile-Ile-Trp [Example 2 c]” was tested, and the “in vivo detection of the arteriosclerotic right a. carotis in anterior scintigram” value [3] was “could be detected in vivo”.
In the case of “^99mTc-Complex of Asp-Gly-Gly-Cys-Gly-Cys-His-Leu-Asp-Ile-Ile-Trp [Example 1 c]”, the “time p.i. at which arteriosclerotic plaques in the region of the aortic arch could be depicted in vivo” value ([1]; WHHL-rabbit, 2 mCi via ear vein, gamma camera) is reported as 10 min.
